{"source": "paper PMC7219735", "about": "“Crystal structure of Thermus thermophilus methylenetetrahydrofolate dehydrogenase and determinants of thermostability” (PLoS ONE, 2020)", "target": "T1, T. thermophilus methylenetetrahydrofolate dehydrogenase (TtMTHFD) (Thermus thermophilus, UniProt Q5SJ94)", "T1 construct": "gene folD; His-tagged (pQtev, tag removal not mentioned), expressed in E. coli BL21(DE3), 33 kDa, dimer; 277 residues in the model, one chain per asymmetric unit", "T1 sequence (Q5SJ94 1-282)": "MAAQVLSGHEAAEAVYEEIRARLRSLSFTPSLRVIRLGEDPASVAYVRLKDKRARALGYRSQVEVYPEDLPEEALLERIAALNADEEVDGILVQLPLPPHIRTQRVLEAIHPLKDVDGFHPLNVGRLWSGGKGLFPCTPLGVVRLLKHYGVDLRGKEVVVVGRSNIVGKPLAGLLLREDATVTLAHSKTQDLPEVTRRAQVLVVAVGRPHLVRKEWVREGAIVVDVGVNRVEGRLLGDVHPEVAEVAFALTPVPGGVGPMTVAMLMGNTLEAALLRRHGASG", "experiment": "X-ray crystal structure, […] A", "conditions": "crystals from 800 mM potassium sodium tartrate, 100 mM HEPES pH 7.5; nucleotide binding domain; NADP+ addition not described", "data": [{"smiles": "NC(=O)c1ccc[n+]([C@@H]2O[C@H](COP(=O)(O)OP(=O)(O)OC[C@H]3O[C@@H](n4cnc5c(N)ncnc54)[C@H](OP(=O)(O)O)[C@@H]3O)[C@@H](O)[C@H]2O)c1", "note": "[NADP^+]", "values": [{"measurement": "X-ray crystal structure, 2.15 A", "value": "we were able to unambiguously identify and fit a molecule of NADP^+"}]}]}
